Literature values as cited in patent publication US5118493A, “Composition having reduced nephrotoxocity comprising a fatty acid containing component and cyclosporine” (Brigham and Women's Hospital, priority 1991, dated 1992).

Tested on: rats treated with CSA

Cc1c(Cn2ccnc2)c2ccccc2n1CCC(=O)O [UK-38,485]
glomerular filtration rate (GFR): improved
urinary TxB2 levels: comparable to control levels
